From US20240228504A1, “SUBSTITUTED TRICYCLIC AMIDES, ANALOGUES THEREOF, AND METHODS USING SAME” (Arbutus Biopharma Corporation, priority 2020, published 2024) come the findings set out here.

SMILES strings stand for the structures. pEC50: −log10 of the molar value.

This experiment relates to HBV rcDNA in HepDE19 cells. As to the kind of experiment: HepDE19 assay with bDNA quantitation of HBV rcDNA. The following applies: HepDE19 assay, inhibition of rcDNA formation, bDNA quantitation; read-out: DE-19bDNA EC50. The class given is cell-based, hepatitis B virus.
By pEC50 is commonly meant the EC50 on a negative log10 scale, so that one unit is a factor of ten. As to `CN(C(=O)c1cc2c(F)cccn2c1)C1COCc2[nH]c(=O)c3cc(F)c(F)cc3c21` (single isomer, unassigned) [Compound 9, N-(8,9-Difluoro-6-oxo-1,4,5,6-tetrahydro-2H-pyrano[3,4-c]isoquinolin-1-yl)-8-fluoro-N-methylindolizine-2-carboxamide], the pEC50 was 5.48.

Regarding `CN(C(=O)c1cc2c(F)cccn2c1)C1COCc2[nH]c(=O)c3cc(F)c(F)cc3c21` (single isomer, unassigned) [Compound 10, N-(8,9-Difluoro-6-oxo-1,4,5,6-tetrahydro-2H-pyrano[3,4-c]isoquinolin-1-yl)-8-fluoro-N-methylindolizine-2-carboxamide], the pEC50 was 8.00. Then `CN(C(=O)c1cc2ccccn2c1)C1COCc2[nH]c(=O)c3cc(F)c(F)cc3c21` (single isomer, unassigned) [Compound 11, N-(8,9-Difluoro-6-oxo-1,4,5,6-tetrahydro-2H-pyrano[3,4-c]isoquinolin-1-yl)-N-methylindolizine-2-carboxamide], with 5.28. For `CN(C(=O)c1cc2ccccn2c1)C1COCc2[nH]c(=O)c3cc(F)c(F)cc3c21` (single isomer, unassigned) [Compound 12, N-(8,9-Difluoro-6-oxo-1,4,5,6-tetrahydro-2H-pyrano[3,4-c]isoquinolin-1-yl)-N-methylindolizine-2-carboxamide] the value was 8.00; for `CN(C(=O)c1cc2c(Cl)cccn2c1)C1COCc2[nH]c(=O)c3cc(F)c(F)cc3c21` (single isomer, unassigned) [Compound 17, 8-Chloro-N-(8,9-difluoro-6-oxo-1,4,5,6-tetrahydro-2H-pyrano[3,4-c]isoquinolin-1-yl)-N-methylindolizine-2-carboxamide], 5.72. For `CN(C(=O)c1cc2c(Cl)cccn2c1)C1COCc2[nH]c(=O)c3cc(F)c(F)cc3c21` (single isomer, unassigned) [Compound 18, 8-Chloro-N-(8,9-difluoro-6-oxo-1,4,5,6-tetrahydro-2H-pyrano[3,4-c]isoquinolin-1-yl)-N-methylindolizine-2-carboxamide] the value was 8.00. For `CN(C(=O)c1cc2c(F)cccc2[nH]1)C1COCc2[nH]c(=O)c3cc(F)ccc3c21` (single isomer, unassigned) [Compound 19, 4-Fluoro-N-(8-fluoro-6-oxo-1,4,5,6-tetrahydro-2H-pyrano[3,4-c]isoquinolin-1-yl)-N-methyl-1H-indole-2-carboxamide], the pEC50 is 5.82.

`CN(C(=O)c1cc2c(F)cccc2[nH]1)C1COCc2[nH]c(=O)c3cc(F)ccc3c21` (single isomer, unassigned) [Compound 20, 4-Fluoro-N-(8-fluoro-6-oxo-1,4,5,6-tetrahydro-2H-pyrano[3,4-c]isoquinolin-1-yl)-N-methyl-1H-indole-2-carboxamide]: the pEC50 was 7.70. For `CN(C(=O)c1cc2ccccc2[nH]1)C1COCc2[nH]c(=O)c3cc(F)c(F)cc3c21` (single isomer, unassigned) [Compound 21, N-(8,9-Difluoro-6-oxo-1,4,5,6-tetrahydro-2H-pyrano[3,4-c]isoquinolin-1-yl)-N-methyl-1H-indole-2-carboxamide] the value was 5.48.

Regarding `CN(C(=O)c1cc2ccccc2[nH]1)C1COCc2[nH]c(=O)c3cc(F)c(F)cc3c21` (single isomer, unassigned) [Compound 22, N-(8,9-Difluoro-6-oxo-1,4,5,6-tetrahydro-2H-pyrano[3,4-c]isoquinolin-1-yl)-N-methyl-1H-indole-2-carboxamide], the pEC50 was 8.00. On to `CN(C(=O)c1cc2c(F)cccc2[nH]1)C1COCc2[nH]c(=O)c3cc(F)c(F)cc3c21` (single isomer, unassigned) [Compound 23, N-(8,9-Difluoro-6-oxo-1,4,5,6-tetrahydro-2H-pyrano[3,4-c]isoquinolin-1-yl)-4-fluoro-N-methyl-1H-indole-2-carboxamide], for which the pEC50 is 5.35. As for `CN(C(=O)c1cc2c(F)cccc2[nH]1)C1COCc2[nH]c(=O)c3cc(F)c(F)cc3c21` (single isomer, unassigned) [Compound 24, N-(8,9-Difluoro-6-oxo-1,4,5,6-tetrahydro-2H-pyrano[3,4-c]isoquinolin-1-yl)-4-fluoro-N-methyl-1H-indole-2-carboxamide], the pEC50 is 8.40. For `CN(C(=O)c1cc2ccc(F)cc2[nH]1)C1COCc2[nH]c(=O)c3cc(F)c(F)cc3c21` (single isomer, unassigned) [Compound 25, N-(8,9-Difluoro-6-oxo-1,4,5,6-tetrahydro-2H-pyrano[3,4-c]isoquinolin-1-yl)-6-fluoro-N-methyl-1H-indole-2-carboxamide] the value was 6.09; for `CN(C(=O)c1cc2ccc(F)cc2[nH]1)C1COCc2[nH]c(=O)c3cc(F)c(F)cc3c21` (single isomer, unassigned) [Compound 26, N-(8,9-Difluoro-6-oxo-1,4,5,6-tetrahydro-2H-pyrano[3,4-c]isoquinolin-1-yl)-6-fluoro-N-methyl-1H-indole-2-carboxamide], 8.00; for `CN(C(=O)c1cc2cc(F)ccc2[nH]1)C1COCc2[nH]c(=O)c3cc(F)c(F)cc3c21` (single isomer, unassigned) [Compound 27, N-(8,9-Difluoro-6-oxo-1,4,5,6-tetrahydro-2H-pyrano[3,4-c]isoquinolin-1-yl)-5-fluoro-N-methyl-1H-indole-2-carboxamide], 6.43.

With `CN(C(=O)c1cc2cc(F)ccc2[nH]1)C1COCc2[nH]c(=O)c3cc(F)c(F)cc3c21` (single isomer, unassigned) [Compound 28, N-(8,9-Difluoro-6-oxo-1,4,5,6-tetrahydro-2H-pyrano[3,4-c]isoquinolin-1-yl)-5-fluoro-N-methyl-1H-indole-2-carboxamide], the pEC50 was 8.40. For `CN(C(=O)c1cc2cc(F)ccc2[nH]1)C1COCc2[nH]c(=O)c3cc(F)ccc3c21` (single isomer, unassigned) [Compound 29, 5-Fluoro-N-(8-fluoro-6-oxo-1,4,5,6-tetrahydro-2H-pyrano[3,4-c]isoquinolin-1-yl)-N-methyl-1H-indole-2-carboxamide] the value was 5.82; for `CN(C(=O)c1cc2cc(F)ccc2[nH]1)C1COCc2[nH]c(=O)c3cc(F)ccc3c21` (single isomer, unassigned) [Compound 30, 5-Fluoro-N-(8-fluoro-6-oxo-1,4,5,6-tetrahydro-2H-pyrano[3,4-c]isoquinolin-1-yl)-N-methyl-1H-indole-2-carboxamide], 8.00; for `CN(C(=O)c1cc2ccc(F)cc2[nH]1)C1COCc2[nH]c(=O)c3cc(F)ccc3c21` (single isomer, unassigned) [Compound 31, 6-Fluoro-N-(8-fluoro-6-oxo-1,4,5,6-tetrahydro-2H-pyrano[3,4-c]isoquinolin-1-yl)-N-methyl-1H-indole-2-carboxamide], 5.92. For `CN(C(=O)c1cc2ccc(F)cc2[nH]1)C1COCc2[nH]c(=O)c3cc(F)ccc3c21` (single isomer, unassigned) [Compound 32, 6-Fluoro-N-(8-fluoro-6-oxo-1,4,5,6-tetrahydro-2H-pyrano[3,4-c]isoquinolin-1-yl)-N-methyl-1H-indole-2-carboxamide] the value was 7.70.

As for `CN(C(=O)c1cc2cccc(F)c2[nH]1)C1COCc2[nH]c(=O)c3cc(F)ccc3c21` (single isomer, unassigned) [Compound 33, 7-Fluoro-N-(8-fluoro-6-oxo-1,4,5,6-tetrahydro-2H-pyrano[3,4-c]isoquinolin-1-yl)-N-methyl-1H-indole-2-carboxamide], the pEC50 was 5.74. Then `CN(C(=O)c1cc2cccc(F)c2[nH]1)C1COCc2[nH]c(=O)c3cc(F)ccc3c21` (single isomer, unassigned) [Compound 34, 7-Fluoro-N-(8-fluoro-6-oxo-1,4,5,6-tetrahydro-2H-pyrano[3,4-c]isoquinolin-1-yl)-N-methyl-1H-indole-2-carboxamide], with 7.52. For `CN(C(=O)c1cc2c(F)cc(F)cc2[nH]1)C1COCc2[nH]c(=O)c3cc(F)ccc3c21` (single isomer, unassigned) [Compound 35, 4,6-Difluoro-N-(8-fluoro-6-oxo-1,4,5,6-tetrahydro-2H-pyrano[3,4-c]isoquinolin-1-yl)-N-methyl-1H-indole-2-carboxamide] the value was 5.85. For `CN(C(=O)c1cc2c(F)cc(F)cc2[nH]1)C1COCc2[nH]c(=O)c3cc(F)ccc3c21` (single isomer, unassigned) [Compound 36, 4,6-Difluoro-N-(8-fluoro-6-oxo-1,4,5,6-tetrahydro-2H-pyrano[3,4-c]isoquinolin-1-yl)-N-methyl-1H-indole-2-carboxamide] the value was 7.70. Consider `CN(C(=O)c1cc2c(F)c(F)ccc2[nH]1)C1COCc2[nH]c(=O)c3cc(F)ccc3c21` (single isomer, unassigned) [Compound 37, 4,5-Difluoro-N-(8-fluoro-6-oxo-1,4,5,6-tetrahydro-2H-pyrano[3,4-c]isoquinolin-1-yl)-N-methyl-1H-indole-2-carboxamide], for which the pEC50 was 6.15. For `CN(C(=O)c1cc2c(F)c(F)ccc2[nH]1)C1COCc2[nH]c(=O)c3cc(F)ccc3c21` (single isomer, unassigned) [Compound 38, 4,5-Difluoro-N-(8-fluoro-6-oxo-1,4,5,6-tetrahydro-2H-pyrano[3,4-c]isoquinolin-1-yl)-N-methyl-1H-indole-2-carboxamide] the value was 8.00.

`CN(C(=O)c1cc2cccc(F)c2[nH]1)C1COCc2[nH]c(=O)c3cc(F)c(F)cc3c21` (single isomer, unassigned) [Compound 39, N-(8,9-Difluoro-6-oxo-1,4,5,6-tetrahydro-2H-pyrano[3,4-c]isoquinolin-1-yl)-7-fluoro-N-methyl-1H-indole-2-carboxamide]: the pEC50 is 6.11. Then `CN(C(=O)c1cc2cccc(F)c2[nH]1)C1COCc2[nH]c(=O)c3cc(F)c(F)cc3c21` (single isomer, unassigned) [Compound 40, N-(8,9-Difluoro-6-oxo-1,4,5,6-tetrahydro-2H-pyrano[3,4-c]isoquinolin-1-yl)-7-fluoro-N-methyl-1H-indole-2-carboxamide], with 8.00.
